The test system of one assay is soybean. Kind of assay: Greenhouse experiments on soybean (seed treatment, root weight and leaf area). The class given is in vivo, soybean (variety Cordoba). The conditions noted are these: sand/perlite with arbuscular mycorrhizal inoculum, 6 weeks greenhouse, average of 3 replicates of 5 plants. The protocol:
Test is performed in the greenhouse. 5 soybean seeds per treatment of the variety Cordoba were sown in 500 ml rose pots (7×7×18 cm) containing a mix of sand and perlite (1:1). 3 replicates were made. The active ingredient was solved in a solvent and seed treatment was performed with a lab equipment.
To inoculate with arbuscular mycorrhizal fungi, 10 g inoculum (Vaminoc; MicroBio Ltd.) were mixed with 1 l of the sand-perlite mixture.
Seeds were covered by 3 cm of LECA (light expanded clay aggregate). Pots were incubated in the greenhouse for 6 weeks at 22° C./15° C. (day/night) and 80% relative humidity. Assessment consisted of root weight and leaf area.
average of 3 replicates of 5 plants

The next assay relates to Winter wheat. Put plainly: Field trials 2: winter wheat, Germany (Bergisches Land). The format is in vivo, Winter wheat (variety Dekan). The conditions noted are these: in comparison to the untreated control. The procedure:
b) Field trials 2: Winter wheat: Germany (Bergisches Land):
Seeds of the variety “Dekan” were planted on December with a seed density of 400 seeds/m^2 on a non-fertilized soil. The plot size was 6 m×2.5 m (=15 m^2) and four randomised replicates were used. The application of plant protection products were carried out according to the good agricultural practise. The evaluation of different growth parameters was done during the season.
Dosages Winter Wheat (Bergisches Land):
Base: Insecticide (I): Imidacloprid; Fungicides (F): Fluoxastrobin & Tebuconazole & Prothioconazole.

The test system of the next assay is soybean seeds. Kind of assay: Germination test on soybean (agar plates, climate chamber). The format is in vivo, soybean (variety Cordoba). The conditions noted are these: seed treatment, 10° C. in darkness, after 4 days, average of 5 replicates of 20 seeds. The procedure:
Test is performed in a climate chamber. 20 soybean seeds per treatment of the variety Cordoba were sown on agar plates (0.8% agar). 5 replicates were made. The active ingredient was solved in a solvent and seed treatment was performed with a lab equipment. Plates were incubated at 10° C. in darkness. After 4 days the germination rate and root length were assessed.
(§1) average of 5 replicates of 20 seeds

The test system of the next assay is wheat seeds. Put plainly: Germination test on wheat (agar plates, climate chamber). The format is in vivo, wheat (variety Tuareg). The conditions noted are these: seed treatment, 10° C. in darkness, after 2 days, average of 5 replicates of 20 seeds. The procedure:
For wheat experiments 20 wheat seeds per treatment of the variety Tuareg were sown on agar plates (1.4% agar). 5 replicates were made. The active ingredient was solved in a solvent and seed treatment was performed with a lab equipment. Plates were incubated at 10° C. in darkness. After 2 days the germination rate and root length were assessed.
as §1

Experimental findings from US9131685B2, “Compositions comprising a strigolactone compound and a chito-oligosaccharide compound for enhanced plant growth and yield” (Bayer CropScience AG, priority 2009, dated 2015) are described below.

For `CON=C(C(=O)OC)c1ccccc1CON=C(C)c1cccc(C(F)(F)F)c1` [Trifloxystrobin, reference compound], in the assay on soybean, the “Leaf Area” value is on record as 24.80 cm^2 and the Root weight worked out at 18.2 g.
For the compound `CCCCCC/C=C\CCCOc1cccc(C(=O)NC2C(O[C@@H]3C(CO)OC(OC4C(CO)O[C@@H](O[C@@H]5C(CO)OC(OC6C(CO)OC(O)C(NC(C)=O)C6O)C(NC(C)=O)C5O)C(NC(C)=O)C4O)C(NC(C)=O)C3O)OC(CO)[C@@H](O)C2O)c1` (stereo partly shown) [Compound B1], the “yield in dt/ha, in words” value with Winter wheat is “increased yield”. In the assay with soybean seeds, this compound came in with a Germination rate of 58% and a Root length of 5.64 cm. For the same compound, in the assay on soybean, the “Leaf Area” value is given as 36.82 cm^2 and the Root weight was determined as 9.19 g. In the assay on wheat seeds, this compound returned a Germination rate of 8% and a Root length of 2.34 cm.
Take `OC(Cc1ccccc1Cl)(Cn1nc[nH]c1=S)C1(Cl)CC1` (stereo not shown) [Prothioconazole, reference compound]: in the assay with soybean, the “Leaf Area” value amounted to 20.58 cm^2 and the Root weight turned out to be 16.8 g.
For the compound `CCCCCC/C=C\CCCOc1cccc(C(=O)NC2C(O)[C@H](O)C(CO)O[C@H]2O[C@@H]2C(CO)O[C@@H](O[C@@H]3C(CO)O[C@@H](O[C@@H]4C(CO)O[C@@H](O[C@@H]5C(CO[C@@H]6OC(C)[C@@H](O)C(O)C6O)OC(O)C(NC(C)=O)C5O)C(NC(C)=O)C4O)C(NC(C)=O)C3O)C(NC(C)=O)C2O)c1` (stereo partly shown) [Compound B2], in the assay on soybean seeds, the Germination rate was 68% and the Root length was determined as 5.61 cm. In the assay with wheat seeds, this compound showed a Germination rate of 18% and a Root length of 2.02 cm.
With `CC1=CC(O/C=C2/C(=O)OC3c4ccccc4CC23)OC1=O` (stereo not shown) [Compound A1], in the assay with soybean seeds, the Germination rate was 63% and the Root length was found to be 5.19 cm. In addition, in the assay with soybean, the “Leaf Area” value is given as 35.67 cm^2 and the Root weight was found to be 11.13 g. In the assay on wheat seeds, this compound showed a Germination rate of 27% and a Root length of 3.04 cm.
Take `CCCCCC/C=C\CCCOc1cccc(C(=O)NC2C(O[C@@H]3C(CO)OC(OC4C(CO)O[C@@H](O[C@@H]5C(CO)OC(OC6C(CO[C@@H]7OC(C)C(O)C(O)C7OC)OC(O)C(NC(C)=O)C6O)C(NC(C)=O)C5O)C(NC(C)=O)C4O)C(NC(C)=O)C3O)OC(CO)[C@@H](O)C2O)c1` (stereo partly shown) [Compound B3]: in the assay with soybean seeds, the Germination rate was 59% and the Root length is given as 5.13 cm. In the assay on wheat seeds, this compound had a Germination rate of 17% and a Root length of 2.18 cm.
